US7371207B2 (Wyeth, priority 2002, dated 2008)

Key:
[1] = tested on: gene expression in the uterus; assay: GeneChip microarray survey of E2 regulated gene expression, uterus; conditions: 20 μg/kg/day E2 s.c. six weeks; WT and ERβKO ovariectomized mice; number of genes
Experimental: FIG. 1 depicts a pattern analysis generated by a GeneChip microarray analysis. […] Two hours following the final dose, the mice were euthanized and 13 tissues removed for RNA preparation. Two independent studies were performed, with total RNA pooled from two groups of three animals for each condition. Gene expression was quantified by GeneChip microarrays using murine U74 sub A arrays. Data were analyzed for patterns indicating either ERα or ERβ dependent regulation as shown. […] The number of genes in each tissue that matched the theoretical induction (↑) or repression (↓) patterns for ERα or ERβ are indicated.
(§1) One week later, the animals were ovariectomized.
GeneChip—Total RNA was prepared separately from each individual organ by using Trizol (Invitrogen) followed by subsequent repurification on Rneasy columns (Qiagen). In general, two pools of RNA were created using equal amounts of RNA from three mice. For small organs such as pituitary, an equal amount of RNA from six animals was combined.
Target Preparation and Array Hybridization—Total RNA was used to generate biotin labeled cRNA target as described (8) which was hybridized to the murine MG_U74Av2 probe arrays (Affymetrix, Santa Clara, Calif.) for 16 h at 45° C. Eleven biotin-labeled cRNAs at defined concentration were spiked into each hybridization and used to convert average difference values to frequencies expressed as parts per million.
The resulting data set was queried for genes whose regulation was dependent on ERα or ERβ.

[2] = tested on: gene expression in the pituitary; assay: GeneChip microarray survey of E2 regulated gene expression, pituitary; assay type: in vivo, mouse
From the text: as §1

[3] = tested on: gene expression in the kidney; assay: Real-time PCR of kidney gene expression in ovariectomized WT mice
From the text: FIGS. 5A-5B show a series of graphs showing expression levels for various genes. […] (B) Uterine wet weights (mg) and gene expression values (mean±SEM).
FIGS. 6A-6D show a series of bar graphs depicting relative expression levels for various genes.
as §1

[4] = 20 μg/kg/day E2 s.c. six weeks, WT and ERβKO ovariectomized mice, number of genes
[5] = 10 μg/kg/day E2 or 5 mg/kg/day tamoxifen, 6 weeks, FIG. 8

With `C[C@]12CC[C@@H]3c4ccc(O)cc4CC[C@H]3[C@@H]1CC[C@@H]2O` [E2, 17β-estradiol] the “ERα pattern regulations in uterus, number of inductions” value [1] was 514, the “ERα pattern regulations in uterus, number of repressions” value [1] was 19 and the “ERα pattern regulations in pituitary, number of inductions” value [2, 4] was 56. For the same compound, the “ERα pattern regulations in pituitary, number of repressions” value [2, 4] was 30, the “Kallikrein-9 expression in pituitary” value ([2]; mouse, in vivo) was “Induced” and the “BCAT1 expression in kidney, WT mice” value [3, 5] was “induced”. The “CYP7B1 expression in kidney, WT mice” value [3, 5] was “induced”, the “TF expression in kidney, WT mice” value [3, 5] was “induced” and the “ED50 for stimulation of CYP7B1, TF, STAT5A, and BCAT1 in the kidney” value ([3]; ovariectomized WT mice, various doses s.c. six weeks, FIG. 5) was “about 3 μg/kg/day”.
